Results on ten molecules are retold here after article PMC6968685 (Journal of Enzyme Inhibition and Medicinal Chemistry, 2020).

For data set [1], the system named is L. donovani (MHOM/IN/00/DEVI) promastigotes. The experiment in a line: In vitro antileishmanial activity, MTT assay on promastigotes. In kind it is cell-based. The note with it: Leishmania donovani, 72 h incubation, ≥10 = no activity noted at the highest concentration tested. As to the method: L. donovani (MHOM/IN/00/DEVI) used in this study was provided by the CNR Leishmania (Montpellier, France). The effects of the tested compounds on the growth of L. donovani (MHOM/IN/00/DEVI) promastigotes were assessed by MTT assay. Briefly, promastigotes in log-phase in Schneider’s medium supplemented with 20% foetal calf serum (FCS), 2 mM L-glutamine and antibiotics (100 U/ml penicillin and 100 µg/ml streptomycin), were incubated at an average density of 10^6 parasites/ml in sterile 96-well plates with various concentrations of compounds dissolved in DMSO (final concentration less than 0.5% v/v), in duplicate. Appropriate controls treated with DMSO and amphotericin B (reference drug purchased from Sigma-Aldrich) were added to each set of experiments. After 72 h incubation period at 27 °C, parasite metabolic activity was determined. Each well was microscopically examined for precipitate formation. To each well was added 20 µl of 5 mg/ml MTT [3–(4,5-dimethylthiazol-2-yl)-2,5-diphenyltetrazolium bromide)] solution followed by 4 h incubation time. The enzyme reaction was stopped by addition of 100 µl of 50% isopropanol/10% sodium dodecyl sulfate. Plates were vigorously shaken (300 rpm) for 10 min, and the absorbance was measured at 570 nm in a BIO-TEK ELx808 Absorbance Microplate Reader. […] IC50 of the parasite’s growth (half maximal inhibitory concentration or IC50 values) were then calculated from the obtained experimental results using a previously described regression programme.

Data set [2] is described as follows: Cytotoxicity evaluation, MTT. In kind it is cell-based, human. The note with it: human. On the procedure:
These cells are a commonly used human hepatocarcinoma-derived cell line that has characteristics similar to those of primary hepatocytes. These cells express many hepatocyte-specific metabolic enzymes, thus enabling the cytotoxicity of tested product metabolites to be evaluated. […] Duplicate assays were performed for each sample. Each well was microscopically examined for precipitate formation before the medium was aspirated from the wells. After aspiration, 100 µl of MTT solution (0.5 mg/ml in medium without FCS) were then added to each well. […] The MTT solution was removed, and DMSO (100 µl) was added to dissolve the resulting blue formazan crystals. Plates were shaken vigorously (300 rpm) for 5 min. The absorbance was measured at 570 nm with 630 nm as reference wavelength in a BIO-TEK ELx808 Absorbance Microplate Reader. DMSO was used as blank and doxorubicin (Sigma Aldrich) as positive control. Cell viability was calculated as percentage of control (cells incubated without compound). The CC50 was determined from the dose-response curve using the TableCurve 2D version 5.0 software (Systat Software, San Jose, CA)

In data set [3] the test system is P. falciparum CQ-resistant strain W2. The experiment in a line: In vitro antiplasmodial activity, SYBR Green I fluorescence-based method, strain W2. In kind it is cell-based. The note with it: for IC50: Plasmodium falciparum, chloroquine-resistant strain W2, 48 h incubation, read-out: P. falciparum strains IC50 values, W2; for Selectivity index HepG2/W2: SI = CC50 HepG2 / IC50 P. falciparum W2. On the procedure: (§1) The in vitro antiplasmodial activities were tested over concentrations ranging from […] against culture-adapted P. falciparum reference strains 3D7 and W2. […] The parasites were cultivated in RPMI medium (Sigma-Aldrich, Lyon, France) supplemented with 0.5% Albumax I (Life Technologies Corporation, Paisley, UK), hypoxanthine (Sigma-Aldrich), and gentamicin (Sigma-Aldrich) with human erythrocytes and were incubated at 37 °C in a candle jar, as described previously[43] .The P. falciparum drug susceptibility test was carried out in 96-well flat-bottom sterile plates in a final volume of 250 µl. After 48 h incubation period with the drugs, quantities of DNA in treated and control cultures of parasites in human erythrocytes were quantified using the SYBR Green I (Sigma-Aldrich) fluorescence-based method[44]^,[45]. Briefly, after incubation, plates were frozen at −20 °C until use. Plates were then thawed for 2 h at room temperature, and 100 µl of each homogenised culture was transferred to a well of a 96-well flat-bottom sterile black plate (Nunc, Inc., Rochester, NY) that contained 100 µl of the SYBR Green I lysis buffer (2xSYBR Green, 20 mM Tris base pH 7.5, 5 mM EDTA, 0.008% w/v saponin, 0.08% w/v Triton X-100). […] Plates were incubated for 1 h at room temperature and then read on a fluorescence plate reader (Tecan, Grödig, Austria) using excitation and emission wavelengths of 485 and 535 nm, respectively. IC50 values were calculated by non-linear regression analysis of data from dose-response curves, using TableCurve 2D version 5.0 software (Systat Software, San Jose, CA). IC50 values are reported as means calculated from three independent experiments.

Data set [4] has as its system T. brucei brucei AnTat 1.9. The experiment in a line: In vitro antitrypanosomal activity, Alamar Blue assay. In kind it is cell-based. The note with it: for Selectivity index HepG2/Tryp.: SI = CC50 HepG2 / IC50 Trypanosoma brucei brucei; for IC50: Trypanosoma brucei, slender bloodstream trypomastigotes, AnTat 1.9 strain, read-out: Trypanosoma brucei brucei IC50 values, Trypanos Antat 1.9. On the procedure:
The effects of the tested compounds on the growth of T. brucei brucei were assessed using an Alamar Blue® assay described by Räz et al.[49] T. brucei brucei AnTat 1.9 (IMTA, Antwerpen, Belgium) was cultured in MEM with Earle’s salts, supplemented according to the protocol of Baltz et al.[50] with the following modifications: 0.5 mM mercaptoethanol (Sigma Aldrich), 1.5 mM L-cysteine (Sigma Aldrich), 0.05 mM bathocuproine sulphate (Sigma Aldrich), and 20% heat-inactivated horse serum (Gibco, France) at 37 °C and 5% CO2. Samples were incubated at an average density of 2000 parasites/well in sterile 96-wells plates (Fisher, France) with various concentrations of compounds dissolved in 0.9% NaCl. All doses were tested in duplicate. Appropriate controls treated with solvents 0.9% NaCl or DMSO or with suramin, pentamidine, eflornithine, and fexinidazole (reference drugs purchased from Sigma Aldrich and Fluorochem, UK) were added to each set of experiments. After 69 h incubation period at 37 °C, 10 µl of the viability marker Alamar Blue (Fisher) was added to each well, and the plates were incubated for 5 h. The plates were read in a PerkinElmer ENSPIRE (Germany) microplate reader using an excitation wavelength of 530 nm and an emission wavelength of 590 nm. […] IC50 values were calculated using a nonlinear regression analysis of dose-response curves performed using GraphPad Prism software (La Jolla, CA). IC50 values were calculated from three independent experiments.

Data set [5] deals with P. falciparum CQ-sensitive strain 3D7. The experiment in a line: In vitro antiplasmodial activity, SYBR Green I fluorescence-based method, strain 3D7. The data set is classed as cell-based. The note with it: for IC50: Plasmodium falciparum, chloroquine-sensitive strain 3D7, 48 h incubation, read-out: P. falciparum strains IC50 values, 3D7; for Selectivity index HepG2/3D7: SI = CC50 HepG2 / IC50 P. falciparum 3D7. As to the method: as §1

For `COc1ccc2nc(-c3ccc(CNCCCN4CCN(C)CC4)cc3)nc(-c3ccc(CNCCCN4CCN(C)CC4)cc3)c2c1` [Compound 3k, 6-Methoxy-2,4-bis{4-[(3–(4-methylpiperazin-1-yl)propyl)aminomethyl]phenyl}quinazoline], the IC50 in data set [1] was ≥ 10000 nM. Moreover, in data set [2], the CC50 at 72 h stood at 22600 ± 1100 nM. Moreover, in data set [3], the IC50 is 4840 ± 580 nM and the “Selectivity index HepG2/W2” value was 4.67. Also, in data set [4], the “Selectivity index HepG2/Tryp.” value turned out to be 24.06 and the IC50 was determined as 940 ± 89 nM. In data set [5], the IC50 turned out to be 3120 ± 230 nM and the “Selectivity index HepG2/3D7” value stood at 7.25.

For the molecule `COc1ccc2c(-c3ccc(CNCCCCN(C)C)cc3)cc(-c3ccc(CNCCCCN(C)C)cc3)nc2c1` [Compound 1m, 7-Methoxy-2,4-bis{4-[(4-dimethylaminobutyl)aminomethyl]phenyl}quinoline], the IC50 in data set [1] is ≥ 10000 nM; in data set [3], > 40000 nM; in data set [4], 1080 ± 68 nM; in data set [5], 8980 ± 360 nM. Moreover, in data set [2], the CC50 at 72 h is 5400 ± 300 nM. Moreover, the “Selectivity index HepG2/Tryp.” value in data set [4] came out at 5.00. In data set [5], the “Selectivity index HepG2/3D7” value stood at 0.60.

On to `CN(C)CCCCNCc1ccc(-c2cc3ccccc3c(-c3ccc(CNCCCCN(C)C)cc3)n2)cc1` [Compound 2a, 1,3-Bis{4-[(4-dimethylaminobutyl)aminomethyl]phenyl}isoquinoline], for which the IC50 in data set [1] was ≥ 10000 nM. Also, the CC50 at 72 h in data set [2] was 8310 ± 1000 nM. In data set [3], the IC50 was 6230 ± 800 nM and the “Selectivity index HepG2/W2” value amounted to 1.33. Moreover, in data set [4], the “Selectivity index HepG2/Tryp.” value is reported as 12.98 and the IC50 worked out at 640 ± 163 nM. Further, in data set [5], the IC50 turned out to be 1740 ± 360 nM and the “Selectivity index HepG2/3D7” value is recorded as 4.78.

With `COc1ccc2c(-c3ccc(CNCCN(C)C)cc3)nc(-c3ccc(CNCCN(C)C)cc3)nc2c1` [Compound 3o, 7-Methoxy-2,4-bis{4-[(2-dimethylaminoethyl)aminomethyl]phenyl}quinazoline], the IC50 in data set [1] was ≥ 10000 nM. Moreover, the midpoint of cytotoxicity in data set [2], the CC50 at 72 h, lay at 1140 ± 400 nM. Also, in data set [3], the IC50 was 990 ± 90 nM and the “Selectivity index HepG2/W2” value came to 1.15. Moreover, in data set [4], the “Selectivity index HepG2/Tryp.” value was 1.52 and the IC50 came out at 750 ± 121 nM. In data set [5], the IC50 was determined as 610 ± 30 nM and the “Selectivity index HepG2/3D7” value turned out to be 1.87.

For `COc1ccc2cc(-c3ccc(CNCCCN4CCN(C)CC4)cc3)nc(-c3ccc(CNCCCN4CCN(C)CC4)cc3)c2c1` [Compound 2h, 7-Methoxy-1,3-bis{4-[(3–(4-methylpiperazin-1-yl)propyl)aminomethyl]phenyl}isoquinoline], in data set [1], the IC50 was ≥ 10000 nM. The molecule further gave a CC50 at 72 h in data set [2] of 7180 ± 600 nM. Besides, in data set [3], the IC50 was found to be 1280 ± 340 nM and the “Selectivity index HepG2/W2” value was found to be 5.61. For the same molecule, in data set [4], the “Selectivity index HepG2/Tryp.” value came to 8.86 and the 50% inhibitory concentration (IC50) turned out to be 810 ± 255 nM. Moreover, in data set [5], the IC50 worked out at 1810 ± 190 nM and the “Selectivity index HepG2/3D7” value is recorded as 3.97.

For the molecule `CN1CCN(CCCCNCc2ccc(-c3cc4ccccc4c(-c4ccc(CNCCCCN5CCN(C)CC5)cc4)n3)cc2)CC1` [Compound 2c, 1,3-Bis{4-[(4–(4-methylpiperazin-1-yl)butyl)aminomethyl]phenyl}isoquinoline], the IC50 in data set [1] is ≥ 10000 nM; in data set [3] it was 4420 ± 560 nM; in data set [4] it was 1100 ± 318 nM; in data set [5], 1960 ± 580 nM. The molecule further displayed a CC50 at 72 h in data set [2] of 4980 ± 500 nM. For the same molecule, the “Selectivity index HepG2/W2” value in data set [3] is on record as 1.13. Besides, the “Selectivity index HepG2/Tryp.” value in data set [4] is 4.53. Moreover, the “Selectivity index HepG2/3D7” value in data set [5] came out at 2.54.

Consider `CN1CCN(CCCCNCc2ccc(-c3nc(-c4ccc(CNCCCCN5CCN(C)CC5)cc4)c4ccccc4n3)cc2)CC1` [Compound 3d, 2,4-Bis{4-[(4–(4-methylpiperazin-1-yl)butyl)aminomethyl]phenyl}quinazoline], for which the half-maximal inhibitory concentration (IC50) in data set [1] was ≥ 10000 nM. This molecule also yielded a CC50 at 72 h in data set [2] of 28700 ± 1900 nM. Further, in data set [4], the “Selectivity index HepG2/Tryp.” value is listed as 15.44 and the concentration for half-maximal inhibition (IC50) amounted to 1860 ± 135 nM. Also, in data set [5], the half-maximal inhibitory concentration (IC50) came to 2350 ± 488 nM and the “Selectivity index HepG2/3D7” value worked out at 12.22.

In the case of `CN(C)CCCNCc1cccc(-c2nc(-c3cccc(CNCCCN(C)C)c3)c3ccccc3n2)c1` [Compound 3s, 2,4-Bis{3-[(3-dimethylaminopropyl)aminomethyl]phenyl}quinazoline], the IC50 was ≥ 10000 nM in data set [1], 2070 ± 196 nM in data set [4] and 1130 ± 107 nM in data set [5]. For the same molecule, it took 1140 ± 400 nM to reach half-maximal cytotoxicity in data set [2] (CC50 at 72 h). Besides, the “Selectivity index HepG2/Tryp.” value in data set [4] came to 0.55. Further, in data set [5], the “Selectivity index HepG2/3D7” value amounted to 1.01.

For `CN1CCN(CCCNCc2cccc(-c3nc(-c4cccc(CNCCCN5CCN(C)CC5)c4)c4ccccc4n3)c2)CC1` [Compound 3t, 2,4-Bis{3-[(3–(4-methylpiperazin-1-yl)propyl)aminomethyl]phenyl}quinazoline], in data set [1], the IC50 was ≥ 10000 nM. This molecule had a half-maximal cytotoxic concentration (CC50) at 72 h in data set [2] of 29600 ± 2200 nM. In addition, in data set [4], the “Selectivity index HepG2/Tryp.” value was found to be 14.42 and the IC50 was 2050 ± 535 nM. In data set [5], the IC50 came to 2240 ± 435 nM and the “Selectivity index HepG2/3D7” value is reported as 13.20.

For the molecule `c1cc(CNCCCN2CCOCC2)cc(-c2nc(-c3cccc(CNCCCN4CCOCC4)c3)c3ccccc3n2)c1` [Compound 3u, 2,4-Bis{3-[(3-morpholinopropyl)aminomethyl]phenyl}quinazoline], the IC50 in data set [1] was ≥ 10000 nM; in data set [4] it was 720 ± 70 nM; in data set [5] it was 430 ± 142 nM. This molecule came in with a cytotoxic concentration (CC50) at 72 h in data set [2] of 2640 ± 200 nM. In data set [4], the “Selectivity index HepG2/Tryp.” value worked out at 3.67. The “Selectivity index HepG2/3D7” value in data set [5] was 6.14.
